Test results as given in PubChem BioAssay (NCI).
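Dose response: 5 concentrations. Exposure: 48 h. Format: 96-well plates. Endpoint: linear interpolation; highest concentration if not reached. GI50: concentration for 50% inhibition of growth. At the TGI there is no net growth.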

Columns and labels:
Assay in all cases: NCI anticancer screen, dose series, 48 h
SK-MEL-5 melanoma = system: SK-MEL-5 melanoma
HCC-2998 colon = system: HCC-2998 colon
RXF 393 renal = system: RXF 393 renal
SK-OV-3 ovarian = system: SK-OV-3 ovarian
UACC-62 melanoma = system: UACC-62 melanoma
A549 NSCLC = system: A549 NSCLC
OVCAR-3 ovarian = system: OVCAR-3 ovarian
SK-MEL-28 melanoma = system: SK-MEL-28 melanoma
M14 melanoma = system: M14 melanoma
MDA-MB-231 breast = system: MDA-MB-231 breast

| SMILES | TGI (SK-MEL-5 melanoma) | TGI (HCC-2998 colon) | TGI (RXF 393 renal) | TGI (SK-OV-3 ovarian) | TGI (UACC-62 melanoma) | TGI (A549 NSCLC) | TGI (OVCAR-3 ovarian) | TGI (SK-MEL-28 melanoma) | TGI (M14 melanoma) | GI50 (MDA-MB-231 breast) | TGI (MDA-MB-231 breast) | GI50 (SK-MEL-5 melanoma) | GI50 (RXF 393 renal) | GI50 (SK-OV-3 ovarian) | GI50 (UACC-62 melanoma) | GI50 (A549 NSCLC) | GI50 (OVCAR-3 ovarian) | GI50 (M14 melanoma) | GI50 (HCC-2998 colon) | GI50 (SK-MEL-28 melanoma) |
| --- | --- | --- | --- | --- | --- | --- | --- | --- | --- | --- | --- | --- | --- | --- | --- | --- | --- | --- | --- | --- |
| CC(C(=O)n1c2ccccc2c2ccccc21)N(c1ccccc1)c1ccccc1 (stereo unspecified) | 35.1 µM | 30.1 µM | 28.4 µM | 36.2 µM | 31.7 µM | 38.5 µM | 31.7 µM | 34.4 µM | 30.5 µM |  |  |  |  |  |  |  |  |  |  |  |
| Clc1ccc(N=CNc2ccc(-c3nc4ccccc4o3)cc2)cc1 | 30.1 µM |  | 80.6 µM | > 100 µM | > 100 µM | > 100 µM | 25.3 µM |  | > 100 µM | 25.6 µM | 89.4 µM | 15.4 µM | 25.8 µM | 28.6 µM | 25.3 µM | 38 µM | 11.2 µM | 56.4 µM |  |  |
| COc1ccc2c3c(Nc4ccc(/C(C)=N/O)cc4)[nH]c4ccccc4c-3c(N=O)c2c1 | 14.8 µM | 3.27 µM | 0.0372 µM |  | 23.7 µM | 6.08 µM |  | 50.6 µM | 5.64 µM | 4.8 µM | 24.3 µM | 3.76 µM |  |  | 7.91 µM | 1.45 µM |  | 2.44 µM | 1.78 µM | 27 µM |
| COC(=O)/C(=C\c1ccc(N(CCC#N)CCC#N)cc1)NC(=O)c1cc([N+](=O)[O-])ccc1Cl | > 100 µM | > 100 µM | > 100 µM | > 100 µM | > 100 µM | > 100 µM | > 100 µM | > 100 µM | > 100 µM |  |  |  |  |  |  |  |  |  |  |  |
| OCCNCCOc1ccc(/C(=C(/Cl)c2ccccc2)c2ccccc2)cc1 | 19.2 µM |  | 14.7 µM | 10.4 µM | 26.7 µM | 12.8 µM | 24.8 µM | 3.16 µM | 3.59 µM |  |  |  |  |  |  |  |  |  |  |  |
| COc1ccc(Cc2cnc(NC(=O)c3ccc4c(c3)OCCO4)s2)cc1 | 0.168 µM | > 69.6 µM |  | > 100 µM | 40.6 µM | > 100 µM | 0.0658 µM | > 83.8 µM | 22.4 µM | 0.0379 µM | 22.6 µM | 0.0268 µM |  | 0.0321 µM | 0.0292 µM | 0.044 µM | 0.0221 µM | 0.0228 µM | 0.038 µM | 3.75 µM |
| COc1cc(C(=O)N2CCc3c([nH]c4c([N+](=O)[O-])c(OC)ccc34)C2C)cc(OC)c1OC (stereo unspecified) |  | > 100 µM | 91.2 µM |  | 39.5 µM | > 100 µM | > 100 µM | > 100 µM | > 100 µM |  |  |  |  |  |  |  |  |  |  |  |
| CC1=C(c2cc(C(=O)Nc3ccc(Cl)cc3)nc(=S)[nH]2)Sc2ccccc2N1 | > 100 µM | > 100 µM | > 100 µM | > 100 µM | > 100 µM | > 100 µM | > 100 µM | > 100 µM | > 100 µM |  |  |  |  |  |  |  |  |  |  |  |
| CC[C@@]1(O)C(=O)OCc2c1cc1n(c2=O)Cc2c-1nc1cc(F)c(C)c3c1c2[C@@H](N)CC3 | 0.0203 µM | 0.665 µM | 0.0254 µM | 1.41 µM | 0.0208 µM | 1.15 µM | 0.907 µM |  | 0.111 µM | 0.162 µM | > 100 µM | < 0.01 µM | < 0.01 µM | < 0.01 µM | < 0.01 µM | < 0.01 µM | 0.0339 µM | < 0.01 µM | 0.0314 µM |  |
| C=CCN1CC2CON(C(=O)C(OC)(c3ccccc3)C(F)(F)F)C2C1C(C)C (stereo unspecified) |  | 38.8 µg/mL |  |  |  |  |  |  |  | 41.4 µg/mL |  |  |  | 40.2 µg/mL | 45.1 µg/mL | 34.6 µg/mL | 36.3 µg/mL | 30.3 µg/mL | 18.1 µg/mL | 52.9 µg/mL |
| Clc1cc(Cl)cc(Nc2ccc3cc(OCCCN4CCOCC4)ccc3n2)c1 | 3.13 µM | 3.31 µM | 3.6 µM | 7.24 µM |  | > 100 µM | 6.4 µM |  |  | 1.81 µM | 4.27 µM | 1.71 µM | 1.51 µM | 2.62 µM |  | 3.93 µM | 2.36 µM |  | 1.73 µM |  |
| C=CCn1c2c(sc1=S)C(S)N=CN2 (stereo unspecified) | > 100 µM | > 100 µM | > 100 µM | > 100 µM | > 100 µM | > 100 µM | > 100 µM | > 100 µM | > 100 µM |  |  |  |  |  |  |  |  |  |  |  |
| O=C(O)CSc1n[nH]c(Cc2ccccc2)n1 | > 100 µM | > 100 µM | > 100 µM | > 100 µM | > 100 µM | > 100 µM | > 100 µM | > 100 µM | > 100 µM |  |  |  |  |  |  |  |  |  |  |  |
| CC1=C(C(=O)NNS(=O)(=O)c2ccc(C)cc2)CC(C(=O)NNS(=O)(=O)c2ccc(C)cc2)=C(C)N1 |  | > 100 µM | > 100 µM | > 100 µM | 47.2 µM | > 100 µM | > 100 µM | > 100 µM | > 100 µM |  |  |  |  |  |  |  |  |  |  |  |
| CCC(=O)Nc1ccc(N=NN(C)C)cc1 | > 100 µM | 6.64 µM | > 100 µM | > 100 µM | > 100 µM | > 100 µM |  | > 100 µM | > 100 µM |  | > 100 µM |  |  |  |  |  |  |  |  |  |
| CCOc1ccccc1NC(=O)C(=O)Cc1nc2ccccc2s1 | > 100 µM | > 100 µM | > 100 µM | > 100 µM | > 100 µM | > 100 µM | > 100 µM | > 100 µM | > 100 µM |  |  |  |  |  |  |  |  |  |  |  |
| O=C1C(=O)N(c2cc(Cl)ccc2Cl)C(=O)C(=O)C1c1nc2ccccc2o1 | > 100 µM | > 100 µM | > 100 µM | > 100 µM | > 100 µM | > 100 µM | > 100 µM | > 100 µM | > 100 µM |  |  |  |  |  |  |  |  |  |  |  |
| N.N.NCCCCCCCCCN.O=C([O-])CC(=O)[O-].O=C([O-])CC(=O)[O-].[Pt+4].[Pt+4] | 81.7 µM | > 100 µM | > 100 µM | > 100 µM | > 100 µM | > 100 µM | > 100 µM | > 100 µM | > 100 µM |  |  | 28.9 µM | > 100 µM | > 100 µM | 23.1 µM | > 100 µM | > 100 µM | 50.5 µM | > 100 µM | 87.5 µM |
| Cc1cccc(N=C2NC(=O)C(CC(=O)Nc3cccc(C)c3C)S2)c1 (stereo unspecified) | > 100 µM | > 100 µM | > 100 µM |  | > 100 µM | > 100 µM | > 100 µM | > 100 µM | > 100 µM |  |  |  |  |  |  |  |  |  |  |  |
